Data taken from ChEMBL document CHEMBL5715954, “Silencing c-Myc translation as a therapeutic strategy through targeting PI3Kδ and CK1ε in hematological malignancies” (Blood, 2017).

What was measured:
Parameters in all cases: scale not given: the % may be the effect or the level left
[1] = molecular target: T1, G protein-coupled receptor kinase 3 (Homo sapiens) (UniProt P35626); experiment: Inhibition of human GRK3 assessed as enzyme activity at 1 uM using casein as substrate preincubated for 20 mins followed by [gamma-33P]-ATP addition and measured after 120 mins by radiometric Hot-SpotSM Kinase assay relative to control
T1 sequence (whole entry): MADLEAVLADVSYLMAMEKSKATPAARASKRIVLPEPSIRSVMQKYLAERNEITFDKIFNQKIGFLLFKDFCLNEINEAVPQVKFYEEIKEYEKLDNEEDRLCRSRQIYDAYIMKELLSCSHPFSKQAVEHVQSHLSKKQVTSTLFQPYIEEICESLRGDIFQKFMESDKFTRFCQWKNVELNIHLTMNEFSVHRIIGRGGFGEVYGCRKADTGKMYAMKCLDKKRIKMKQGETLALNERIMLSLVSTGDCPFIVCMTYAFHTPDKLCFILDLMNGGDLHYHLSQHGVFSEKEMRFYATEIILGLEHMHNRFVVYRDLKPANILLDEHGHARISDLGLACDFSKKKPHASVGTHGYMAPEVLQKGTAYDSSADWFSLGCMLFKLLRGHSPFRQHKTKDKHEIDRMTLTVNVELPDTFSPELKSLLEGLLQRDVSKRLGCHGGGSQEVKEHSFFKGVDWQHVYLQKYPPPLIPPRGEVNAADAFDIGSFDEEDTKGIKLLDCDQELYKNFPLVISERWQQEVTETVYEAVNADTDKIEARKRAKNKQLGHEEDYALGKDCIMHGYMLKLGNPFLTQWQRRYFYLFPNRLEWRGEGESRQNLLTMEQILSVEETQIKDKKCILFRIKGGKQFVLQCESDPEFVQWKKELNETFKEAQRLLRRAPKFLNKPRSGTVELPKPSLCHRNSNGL

[2] = molecular target: MAP kinase-interacting serine/threonine-protein kinase 1 (Homo sapiens) (UniProt Q9BUB5); experiment: Inhibition of human MNK1 assessed as enzyme activity at 1 uM using myelin basic protein as substrate preincubated for 20 mins followed by [gamma-33P]-ATP addition and measured after 120 mins by radiometric Hot-SpotSM Kinase assay relative to control
Chain of MAP kinase-interacting serine/threonine-protein kinase 1 (Homo sapiens) (Q9BUB5 whole entry, looked up): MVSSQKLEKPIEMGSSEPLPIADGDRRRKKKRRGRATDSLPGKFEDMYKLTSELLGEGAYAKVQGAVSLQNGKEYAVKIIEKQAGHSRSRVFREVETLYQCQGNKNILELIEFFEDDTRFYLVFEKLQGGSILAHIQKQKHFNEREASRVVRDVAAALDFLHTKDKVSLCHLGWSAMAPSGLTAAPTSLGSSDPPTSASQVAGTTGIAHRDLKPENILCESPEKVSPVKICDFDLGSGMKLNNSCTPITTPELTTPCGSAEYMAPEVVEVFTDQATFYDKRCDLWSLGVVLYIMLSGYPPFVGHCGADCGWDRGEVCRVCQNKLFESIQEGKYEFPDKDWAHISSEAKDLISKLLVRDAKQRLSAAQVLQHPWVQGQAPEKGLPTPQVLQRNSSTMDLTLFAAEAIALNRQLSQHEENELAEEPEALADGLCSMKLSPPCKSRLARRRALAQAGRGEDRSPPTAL

[3] = molecular target: T2, Serine/threonine-protein kinase Nek11 (Homo sapiens) (UniProt Q8NG66); experiment: Inhibition of human NEK11 assessed as enzyme activity at 1 uM using myelin basic protein as substrate preincubated for 20 mins followed by [gamma-33P]-ATP addition and measured after 120 mins by radiometric Hot-SpotSM Kinase assay relative to control
T2 sequence (whole entry): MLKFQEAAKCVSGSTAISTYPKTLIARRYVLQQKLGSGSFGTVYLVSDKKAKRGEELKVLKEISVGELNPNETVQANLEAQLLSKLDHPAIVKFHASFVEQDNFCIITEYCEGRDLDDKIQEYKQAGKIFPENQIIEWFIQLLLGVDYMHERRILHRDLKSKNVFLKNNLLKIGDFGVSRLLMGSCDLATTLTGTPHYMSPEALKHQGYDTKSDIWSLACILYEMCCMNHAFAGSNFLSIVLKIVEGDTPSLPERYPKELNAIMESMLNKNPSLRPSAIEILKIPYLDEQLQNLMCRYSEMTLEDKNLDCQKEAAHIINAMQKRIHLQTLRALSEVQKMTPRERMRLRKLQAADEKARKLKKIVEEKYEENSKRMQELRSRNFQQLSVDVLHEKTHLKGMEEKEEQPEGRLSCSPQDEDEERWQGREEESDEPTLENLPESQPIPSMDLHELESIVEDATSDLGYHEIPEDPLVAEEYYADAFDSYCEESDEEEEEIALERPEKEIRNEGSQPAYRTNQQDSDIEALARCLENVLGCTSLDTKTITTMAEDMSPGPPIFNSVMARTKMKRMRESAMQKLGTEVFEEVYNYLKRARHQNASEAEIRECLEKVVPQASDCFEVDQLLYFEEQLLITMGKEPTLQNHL

[4] = molecular target: T3, Mitogen-activated protein kinase 12 (Homo sapiens) (UniProt P53778); experiment: Inhibition of human P38g assessed as enzyme activity at 1 uM using myelin basic protein as substrate preincubated for 20 mins followed by [gamma-33P]-ATP addition and measured after 120 mins by radiometric Hot-SpotSM Kinase assay relative to control
T3 sequence (whole entry): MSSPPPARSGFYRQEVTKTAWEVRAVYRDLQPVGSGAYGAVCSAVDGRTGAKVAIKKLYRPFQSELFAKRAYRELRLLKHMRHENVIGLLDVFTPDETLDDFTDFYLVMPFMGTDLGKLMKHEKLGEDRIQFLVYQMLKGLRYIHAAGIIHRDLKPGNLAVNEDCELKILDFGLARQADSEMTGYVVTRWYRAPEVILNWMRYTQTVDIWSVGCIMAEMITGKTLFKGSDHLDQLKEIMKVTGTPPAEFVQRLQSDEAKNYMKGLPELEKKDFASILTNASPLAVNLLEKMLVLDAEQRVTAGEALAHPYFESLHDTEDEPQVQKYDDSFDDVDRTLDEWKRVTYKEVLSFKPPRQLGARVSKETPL

With CC[C@H](Nc1ncnc2[nH]cnc12)c1nc2cccc(F)c2c(=O)n1-c1ccccc1 the Activity [1] was 95.3%, the Activity [2] was 96.3% and the Activity [3] was 84.5%. The Activity [4] was 96.8%.
C[C@H](Nc1ncnc2nc[nH]c12)c1cc2cccc(Cl)c2c(=O)n1-c1ccccc1 showed an Activity [1] of 91.5%, an Activity [2] of 93.5% and an Activity [3] of 90.1%. It also gave an Activity [4] of 98.2%.
Work on CC(C)Oc1ccc(-c2nn([C@@H](C)c3oc4ccc(F)cc4c(=O)c3-c3cccc(F)c3)c3ncnc(N)c23)cc1F [UMBRALISIB] yielded an Activity [1] of 99.6%, an Activity [2] of 92% and an Activity [3] of 84.8%. For the same molecule, the Activity [4] was 96.4%.
